Laboratory results from PubChem BioAssay (NCI).
Several values for one entry are separate records, joined by “and”; a condition that tells them apart may be missing. Equal entries are not always repeated.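 These data come from cells grown in 96-well plates and exposed to compound for 48 hours at five concentrations. Here, GI50 denotes the concentration required for 50% inhibition of growth. TGI is the concentration that stops growth completely.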

What was measured:
Assay in all cases: NCI tumour cell line growth inhibition, 48 h
HCT-116 colon = tested on: HCT-116 colon
HT29 colon = tested on: HT29 colon
IGROV1 ovarian = tested on: IGROV1 ovarian
MDA-N = tested on: MDA-N
NCI-H460 lung = tested on: NCI-H460 lung
OVCAR-5 ovarian = tested on: OVCAR-5 ovarian
SF-295 CNS = tested on: SF-295 CNS
SK-MEL-5 melanoma = tested on: SK-MEL-5 melanoma
U251 CNS = tested on: U251 CNS
UACC-257 melanoma = tested on: UACC-257 melanoma

Structure (SMILES) | TGI (HCT-116 colon) | TGI (HT29 colon) | TGI (IGROV1 ovarian) | TGI (MDA-N) | TGI (NCI-H460 lung) | TGI (OVCAR-5 ovarian) | TGI (SF-295 CNS) | TGI (SK-MEL-5 melanoma) | TGI (U251 CNS) | TGI (UACC-257 melanoma) | GI50 (U251 CNS)
O=C(Sc1c(-c2ccccc2)c(=O)n(-c2ccccc2)c(=S)n1-c1ccccc1)c1cccs1 | > 100 µM | > 100 µM | > 100 µM | > 100 µM | > 100 µM | > 100 µM | > 100 µM | 95.1 µM | > 100 µM | > 100 µM | 
Cc1ccnc2nc(N)ccc12 | > 100 µM | > 100 µM | > 100 µM | > 100 µM | > 100 µM | > 100 µM | > 100 µM | > 100 µM | > 100 µM | > 100 µM | 
O=C1C=C2CCC[C@H]3OC(=O)C[C@@]23CC1 | > 100 µM | > 100 µM | > 100 µM | > 100 µM | > 100 µM | > 100 µM | > 100 µM | > 100 µM | > 100 µM | > 100 µM | 
Cc1cccc2nc3c(=O)[nH]c(=O)nc-3n(C)c12 | > 100 µM | > 100 µM | > 100 µM | > 100 µM | > 100 µM | > 100 µM | > 100 µM | > 100 µM | > 100 µM | > 100 µM | 
O=C1CC(C(OCc2ccccc2)C(OCc2ccccc2)C(COCc2ccccc2)OCc2ccccc2)CC(=O)N1 (stereo unspecified) | > 100 µM | > 75 µM | > 100 µM | > 100 µM | > 100 µM | > 100 µM | > 100 µM | > 100 µM | > 100 µM | > 100 µM | > 100 µM and 40 µM
O=C1CC(C(CC(=O)c2ccccc2)c2ccccc2)C(=O)c2ccccc2N1 (stereo unspecified) | > 100 µM | > 100 µM | > 100 µM | > 100 µM | > 100 µM | > 100 µM | > 100 µM | > 100 µM | > 100 µM | > 100 µM | 
COc1ccc(C2OCCN2C)cc1 (stereo unspecified) | > 100 µM | > 100 µM | > 100 µM | > 100 µM | > 100 µM | > 100 µM | > 100 µM | > 100 µM | > 100 µM | > 100 µM | 
[O-][n+]1c(CN2CCCCC2)nc2cccc3c2c1-c1ccccc1-3 | 38.7 µM | 51.8 µM | > 100 µM | 58.4 µM | 46 µM | 50.5 µM | 84 µM | 32.1 µM | > 100 µM | 39.4 µM | 
CCOc1ccc(N=NC2C(=O)N(C(=O)CC(=O)Nc3ccccc3)N=C2C)cc1 (stereo unspecified) | > 100 µM | > 100 µM | > 100 µM | 21.5 µM | > 100 µM | > 100 µM | > 100 µM | > 100 µM | > 100 µM | > 100 µM | 
Oc1ccccc1C1C=C(c2ccccc2)NC(N2CCCCC2)=C1c1nc2ccccc2[nH]1 (stereo unspecified) | 24.6 µM | 29.3 µM | 27.8 µM | 26.6 µM | 28 µM | 32 µM | 29.2 µM | 27 µM | 28.4 µM | 30.7 µM | 
CCCCCCCCCC(=O)N[C@@H](c1ccco1)[C@@H](O)C(=O)O[C@H]1C[C@@]2(O)[C@@H](OC(=O)c3ccccc3)[C@@H]3[C@]4(OC(C)=O)CO[C@@H]4C[C@H](O)[C@@]3(C)C(=O)[C@H](OC(C)=O)C(=C1C)C2(C)C | 1.13 µM | 7.1 µM | 16.1 µM | 0.00909 µM | 8.9 µM | 0.151 µM | 0.211 µM | 2.25 µM | 2.34 µM | 11.7 µM | 
O=CC(O)C(O)C(O)C1CNC(=S)O1 (stereo unspecified) | > 100 µM | > 100 µM | > 100 µM | > 100 µM | > 100 µM | > 100 µM | > 100 µM | > 100 µM | > 100 µM | > 100 µM | 
CN1N=C(c2ccncc2)OC1c1cccc(C(F)(F)F)c1 (stereo unspecified) | > 100 µM | > 100 µM | > 100 µM | > 100 µM | > 100 µM | > 100 µM | > 100 µM | > 100 µM | > 100 µM | > 100 µM | 
Nc1nccc(NCC2(CO)CCC2)n1 | > 100 µM | > 100 µM | > 100 µM | > 100 µM | > 100 µM | > 100 µM | > 100 µM | > 100 µM | > 100 µM | > 100 µM | 
NC(Cc1c[nH]c2cc([N+](=O)[O-])ccc12)C(=O)O (stereo unspecified) | > 100 µM | > 100 µM | > 100 µM | > 100 µM | > 100 µM | > 100 µM | > 100 µM | > 100 µM | > 100 µM | > 100 µM | 
COC(=O)[C@@](C)(COC(=O)C(C)(C)C)NC(=O)OC(C)(C)C | > 100 µM | > 100 µM | > 100 µM | > 100 µM | > 100 µM | > 100 µM | > 100 µM | > 100 µM | > 100 µM | > 100 µM | 
O=c1[nH]c(=O)n(COCCO)c2ccsc12 | > 100 µM | > 100 µM | > 100 µM | > 100 µM | > 100 µM | > 100 µM | > 100 µM | > 100 µM | > 100 µM | > 100 µM | 
CC1(C)CC2(C)CC1CC2(O)c1ccccc1 (stereo unspecified) | > 100 µM | > 100 µM | > 100 µM | > 100 µM | > 100 µM | > 100 µM | > 100 µM | > 100 µM | > 100 µM | > 100 µM | 
COC(=O)CCc1c(Cc2ccc[nH]2)[nH]c(C(=O)OCc2ccccc2)c1C | 32.9 µM | 38.9 µM | 31.4 µM | 34.4 µM | > 100 µM | > 100 µM | 53.3 µM | 29.2 µM | 44.1 µM | 38.9 µM | 
